Consider 15 compounds from patent US11053230B2, “3-hydroxy-imidazolidin-4-one compounds as inhibitors of indoleamine 2,3-dioxygenase” (Netherlands Translational Research Center B.V., priority 2017, dated 2021).

“And” between values parts separate entries of the source, which are not always exact repeats. Identical values can stand only once.

In this experiment the target is T1, IDO1 (Homo sapiens, UniProt P14902).
T1 construct: Recombinant full-length IDO1 (Seegers, N., et al.) and all other assay components were diluted in IDO1 reaction buffer; made in house
T1 sequence (P14902 whole entry): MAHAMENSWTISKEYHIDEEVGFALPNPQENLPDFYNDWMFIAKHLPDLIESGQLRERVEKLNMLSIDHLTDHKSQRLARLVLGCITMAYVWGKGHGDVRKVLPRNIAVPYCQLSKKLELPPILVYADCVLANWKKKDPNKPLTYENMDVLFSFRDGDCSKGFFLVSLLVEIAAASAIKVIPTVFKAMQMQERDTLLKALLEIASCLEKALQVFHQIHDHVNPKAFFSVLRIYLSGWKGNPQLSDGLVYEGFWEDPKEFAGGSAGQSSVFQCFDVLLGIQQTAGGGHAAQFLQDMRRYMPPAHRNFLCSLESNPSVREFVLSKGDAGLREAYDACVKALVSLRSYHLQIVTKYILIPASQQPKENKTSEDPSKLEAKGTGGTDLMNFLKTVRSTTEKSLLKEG
In words: Biochemical IDO1 assay (NFK GreenScreen). As to conditions: NFK GreenScreen; 25 nM IDO1, 100 μM L-tryptophan; read-out: IC50, inhibitory potency on IDO1. The gist of the method: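 Recombinant full-length IDO1 in 50 mM NaH2PO4 pH 7.0 with 0.05% Tween-20 and 1% glycerol converted 100 μM L-tryptophan (final) over 60 min at room temperature with compound, 0.3% DMSO.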
Usually IC50 stands for the concentration that inhibits the measured activity by half. In the case of `NS(=O)(=O)N1CCC(C(=O)N2CC(=O)N(O)C2c2cc(Br)cs2)CC1` (stereo not drawn) [Example 108, 4-[2-(4-Bromo-2-thienyl)-3-hydroxy-4-oxo-imidazolidine-1-carbonyl]piperidine-1-sulfonamide], the IC50 is ≤ 5000 nM and 1000 to 5000 nM.

For the compound `O=C1CN(C(=O)c2c(F)cccc2F)C(c2cc(C3CC3)cs2)N1O` (stereo not drawn) [Example 109, 2-(4-Cyclopropyl-2-thienyl)-1-(2,6-difluorobenzoyl)-3-hydroxy-imidazolidin-4-one], the concentration for half-maximal inhibition (IC50) is ≤ 5000 nM and 1000 to 5000 nM.

Regarding `[2H]c1sc(C2N(O)C(=O)CN2C(=O)c2c(F)cccc2F)cc1Br` (stereo not drawn) [Example 111, 2-(4-Bromo-5-deuterio-2-thienyl)-1-(2,6-difluorobenzoyl)-3-hydroxy-imidazolidin-4-one], the concentration for half-maximal inhibition (IC50) is not above 1000 nM.

Consider `Cc1cc(C2N(O)C(=O)CN2C(=O)c2c(F)cccc2F)sc1Cl` (stereo not drawn) [Example 112, 2-(5-Chloro-4-methyl-2-thienyl)-1-(2,6-difluorobenzoyl)-3-hydroxy-imidazolidin-4-one], for which the IC50 was not above 1000 nM.

For `Cc1sc(C2N(O)C(=O)CN2C(=O)c2c(F)cccc2F)cc1Br` (stereo not drawn) [Example 113, 2-(4-bromo-5-methyl-2-thienyl)-1-(2,6-difluorobenzoyl)-3-hydroxy-imidazolidin-4-one], the half-inhibitory concentration (IC50) was not above 1000 nM.

Consider `[2H]C([2H])([2H])c1sc(C2N(O)C(=O)CN2C(=O)c2c(F)cccc2F)cc1Br` (stereo not drawn) [Example 114, 2-[4-Bromo-5-(trideuteriomethyl)-2-thienyl]-1-(2,6-difluorobenzoyl)-3-hydroxy-imidazolidin-4-one], for which the IC50 is not above 1000 nM.

For `O=C1CN(C(=O)c2c(F)cccc2F)C(c2cc(Br)c(Cl)s2)N1O` (stereo not drawn) [Example 115, 2-(4-Bromo-5-chloro-2-thienyl)-1-(2,6-difluorobenzoyl)-3-hydroxy-imidazolidin-4-one], the IC50 is not above 1000 nM.

As to `O=C1CN(C(=O)c2c(F)cccc2F)C(c2cc(I)c(F)s2)N1O` (stereo not drawn) [Example 116, 1-(2,6-Difluorobenzoyl)-2-(5-fluoro-4-iodo-2-thienyl)-3-hydroxy-imidazolidin-4-one], the IC50 was not above 1000 nM.

As for `N#Cc1cc(F)c(C(=O)N2CC(=O)N(O)C2c2cc(Br)cs2)c(F)c1` (stereo not drawn) [Example 117, 4-[2-(4-Bromo-2-thienyl)-3-hydroxy-4-oxo-imidazolidine-1-carbonyl]-3,5-difluoro-benzonitrile], the IC50 is not above 1000 nM.

With `O=C1CN(C(=O)c2c(F)ccc(-c3ccccc3)c2F)C(c2cc(Br)cs2)N1O` (stereo not drawn) [Example 122, 2-(4-Bromo-2-thienyl)-1-(2,6-difluoro-3-phenyl-benzoyl)-3-hydroxy-imidazolidin-4-one], the IC50 was not above 1000 nM.

For `O=C1CN(C(=O)c2c(F)ccc(-c3ccccc3)c2F)C(c2csc(Br)c2)N1O` (stereo not drawn) [Example 123, 2-(5-Bromo-3-thienyl)-1-(2,6-difluoro-3-phenyl-benzoyl)-3-hydroxy-imidazolidin-4-one], the IC50 is not above 1000 nM.

For `Cn1cc(-c2ccc(F)c(C(=O)N3CC(=O)N(O)C3c3csc(Br)c3)c2F)cn1` (stereo not drawn) [Example 124, 2-(5-Bromo-3-thienyl)-1-[2,6-difluoro-3-(1-methylpyrazol-4-yl)benzoyl]-3-hydroxy-imidazolidin-4-one], the concentration for half-maximal inhibition (IC50) was not above 1000 nM.

Consider `Cn1cc(-c2ccc(F)c(C(=O)N3CC(=O)N(O)C3c3cc(Br)cs3)c2F)cn1` (stereo not drawn) [Example 125, 2-(4-Bromo-2-thienyl)-1-[2,6-difluoro-3-(1-methylpyrazol-4-yl)benzoyl]-3-hydroxy-imidazolidin-4-one], for which the IC50 is not above 1000 nM.

Consider `O=C1CN(C(=O)c2c(F)ccc(B(O)O)c2F)C(c2cc(Br)cs2)N1O` (stereo not drawn) [Example 126, [3-[2-(4-Bromo-2-thienyl)-3-hydroxy-4-oxo-imidazolidine-1-carbonyl]-2,4-difluoro-phenyl]boronic acid], for which the IC50 was ≤ 5000 nM and 1000 to 5000 nM.

Turning to `C#Cc1ccc(F)c(C(=O)N2CC(=O)N(O)C2c2cc(Br)cs2)c1F` (stereo not drawn) [Example 127, 2-(4-Bromo-2-thienyl)-1-(3-ethynyl-2,6-difluoro-benzoyl)-3-hydroxy-imidazolidin-4-one], the IC50 is not above 1000 nM.
